{
  "source": "patent US5260050A",
  "about": "“Methods and compositions for magnetic resonance imaging comprising superparamagnetic ferromagnetically coupled chromium complexes” (priority 1990, dated 1993)",
  "key": {"[1]": {"details": "typically 15 MHz; cited from earlier work"}, "tumor": {"test_system": "tumor", "details": "in vivo; cited from earlier work"}, "[2]": {"details": "cited from earlier work"}, "[3]": {"details": "in vivo; cited from earlier work"}, "[4]": {"test_system": "BRO-strain human malignant melanomas", "assay": "MR imaging of human melanoma xenografts in nude mice", "type": "in vivo, human; Swiss nude mice", "details": "i.v.", "procedure": "The strong paramagnetic metal ion, gadolinium (Gd^+3), was chelated stoichiometrically to DTPA-Dextran 70 polymer, whose preparation is described in Example 1, paragraph 2 (improved formulation). Swiss nude mice were inoculated with BRO-strain human malignant melanomas, and these were allowed to grow to a 1-1.5 cm diameter. Moderately T1-weighted MR imaging (TR=500 msec, TE=40 msec) was performed in a standard Diasonics™ medical imager and a 30-cm RF head coil, before and after intravenous injection of equivalent doses of Gd-DTPA-Dextran-70 (0.03 mmol Gd/kg) or Gd-DTPA (0.1 mmol/kg) contrast agent. […] It will also be recognized that much lower doses of the stronger superparamagnetics (including doses below about 0.01 mmol/kg, versus 0.1 mmol/kg for Gd-DTPA) can be used to obtain effective MRI contrast enhancement; and that much faster, more heavily T1-weighted pulse sequences can be implemented in the presence of superparamagnetic-polymer conjugates or paired-ion complexes."}, "VX2 carcinoma cells": {"test_system": "VX2 carcinoma cells", "assay": "Histochemical platinum staining of perfused VX2 tumors", "type": "in vivo, rabbit", "details": "intraarterial perfusion", "procedure": "At 5 to 15 minutes postinjection, the animals were sacrificed, their lungs removed and fixed with intratracheal buffered formalin, tissue sections cut at 8 microns thickness, and the sections stained using a newly devised method for platinum which comprises a microwave-augmented iron-type stain (60° C.×2 minute×3 cycles) using a 1:1 mixture of 2% ferriferocyanide reagent and 4% HCl. […] To those skilled in the art, additional evidence for selective lung localization, was obtained by injecting intravenously, analogous (subembolizing) heparin-coated nanoparticles containing encapsulated amphotericin B, into identical mice, homogenizing the lungs, and documenting an 8-fold increment in drug levels over native amphotericin B (deoxycholate formulation, Fungizone; Squibb) recovered at 1 to 3 hours postinjection.\nAdditional documentation for maintenance of the cisplatin-carrier paired-ion complex in vivo was obtained as follows. […] Animals were sacrificed at 15 minutes, and the tumors and organs were homogenized extracted and analyzed by atomic absorption for tissue platinum concentrations, as shown in Table 1.\nAdditionally, histochemical platinum stains were performed on the tumor tissues, as described in Example 7.\nMicroinhomogeneities of tissue heating represent a major problem in hyperthermia treatment of tumors. […]"}, "[5]": {"assay": "Permeability of tumor vascular walls", "details": "transport by a polymeric carrier"}, "tumor cells": {"test_system": "tumor cells", "assay": "Histology of heparin carrier transport into tumor cells", "details": "histologically (not shown)"}},
  "data": [
    {"molecule": "CNC[C@H](O)[C@@H](O)[C@H](O)[C@H](O)CO.CNC[C@H](O)[C@@H](O)[C@H](O)[C@H](O)CO.O=C([O-])CN(CCN(CC(=O)[O-])CC(=O)O)CCN(CC(=O)[O-])CC(=O)O.[Gd+3]", "note": "[Gd-DTPA, gadolinium-diethylenetriaminepentaacetate (Gd-DTPA) dimeglumine]", "values": [
      {"measurement": "Relaxivity at higher clinical radio frequencies", "setting": "[1]", "result": "moderate decrease in relaxivity"},
      {"measurement": "Retention in tumor interstitium / tumor enhancement of comparator", "setting": "tumor", "result": "10 to 45", "unit": "min"},
      {"measurement": "Blood clearance half-time", "setting": "[2]; bloodstream", "result": 20, "unit": "min"},
      {"measurement": "Fading of tumor contrast enhancement", "setting": "[2]; by 30 minutes postcontrast", "result": "almost complete fading (tumor clearance)"},
      {"measurement": "Acute hepatic uptake interval", "setting": "[2]; in vivo", "result": "5 to 45", "unit": "min"},
      {"measurement": "Postinjection contrast interval / imaging window", "setting": "[2]; in vivo", "result": "10 to 45", "unit": "min"},
      {"measurement": "Retained fraction", "setting": "[2]; in vivo", "result": "less than 0.5%"},
      {"measurement": "Fraction sequestered in the kidneys", "setting": "[2]; intravenous", "result": "> 90", "unit": "%"},
      {"measurement": "Biodistribution, share of total body water", "setting": "[3]", "result": "ca. 35 % of total body water"},
      {"measurement": "Fading of tumor enhancement", "setting": "[4]; 0.1 mmol/kg, by one hour", "result": "completely faded"},
      {"measurement": "Postcontrast interval at which optimal tumor enhancement began", "setting": "[4]; 0.03 mmol Gd/kg (Gd-DTPA-dextran) or 0.1 mmol/kg (Gd-DTPA), TR=500, TE=40 msec", "result": 10, "unit": "min"}
    ]},
    {"molecule": "N.N.[Cl][Pt][Cl]", "note": "[cisplatin, cis-dichlorodiamine platinum]", "values": [
      {"measurement": "Aggregated staining", "setting": "VX2 carcinoma cells", "result": "absent"}
    ]},
    {"molecule": "OCC(O)CO", "note": "[glycerol]", "values": [
      {"measurement": "Permeability of tumor vascular walls", "setting": "[5]", "result": "increases the permeability of the vascular walls in the tumorous region"}
    ]},
    {"molecule": "heparin", "values": [
      {"measurement": "Intracellular transport in tumor cells", "setting": "tumor cells", "result": "transported inside tumor cells"}
    ]}
  ]
}
